Assay results as given in PMC8617681 (Pharmaceuticals, 2021).
Like-named read-outs stand apart in the source and are kept apart here.

Test: 2 h pharmacokinetic study with or without elacridar in wild-type and Abcb1a/1b;Abcg2-/- mice
Assay type: in vivo
Conditions: for concentration at 2 h / Cmax / Tmax / AUC(0-t): mouse, 10 mg/kg oral, 2 h; for Cmax / Tmax / AUC(0-t): male, plasma, po, 10 mg/kg; for AUC(0-t): read-out: AUC0–2h
Protocol: Mice were housed and handled according to institutional guidelines complying with Dutch and EU legislation. All experimental animal protocols were evaluated and approved by the institutional animal care and use committee. Wild-type, Abcb1a/1b^-/-, Abcg2^-/-, Abcb1a/1b; Abcg2^-/-, Slco1a/1b^-/- male mice, and Cyp3a^-/- and Cyp3aXAV female mice, all of a >99% FVB genetic background, were used between 9 and 16 weeks of age. […] All experimental animal protocols (WP9450, 9669, 9760), including power calculations, designed under the nationally approved DEC/CCD project AVD301002016595, were evaluated and approved by the institutional animal care and use committee of The Netherlands Cancer Institute.
Elacridar hydrochloride was dissolved in DMSO (53 mg/mL) in order to obtain 50 mg elacridar base per mL DMSO. The stock solution was further diluted with a mixture of polysorbate 20, 100% ethanol and 5% glucose water to yield a concentration of 5 mg/mL elacridar [DMSO: polysorbate 20: 100% ethanol: 5% glucose water = 10:15:15:60, (v/v/v/v)]. All dosing solutions were prepared freshly on the day of the experiment.
For the 4 h transporter experiments, tail-vein blood samples were collected at 0.125, 0.25, 0.5, 1, and 2 h time points after oral administration, respectively. For the CYP3A 8 h experiments, tail-vein blood sampling was performed at 0.25, 0.5, 1, 2, and 4 h, respectively. While for elacridar inhibition experiments, tail-vein blood samples were collected at 0.125, 0.25, 0.5, and 1 h time points after oral administration, respectively. Blood sample collection was performed using microvettes containing dipotassium EDTA. At the last time point in each experiment (2, 4 or 8 h), mice were anesthetized with 5% isoflurane and blood was collected by cardiac puncture. Blood samples were collected in Eppendorf tubes containing heparin as an anticoagulant. The mice were then sacrificed by cervical dislocation and brain, liver, kidney, lung, small intestine and testis were rapidly removed. Plasma was isolated from the blood by centrifugation at 9000× g for 6 min at 4 °C, and the plasma fraction was collected and stored at −30 °C until analysis. Organs were homogenized with 4% (w/v) bovine serum albumin and stored at −30 °C until analysis.
Pharmacokinetic parameters were calculated by noncompartmental methods using the PK solver software. The area under the plasma concentration–time curve (AUC) was calculated using the trapezoidal rule, without extrapolating to infinity. The peak plasma concentration (Cmax) and the time of maximum plasma concentration (Tmax) were estimated from the original (individual mouse) data. One-way analysis of variance (ANOVA) was used when multiple groups were compared and the Tukey post hoc correction was used to accommodate multiple testing. The two-sided unpaired Student’s t-test was used when treatments or differences between two specific groups were compared using the software GraphPad Prism 8 (GraphPad Software Inc., La Jolla, CA, USA). All the data were log-transformed before statistical tests were applied. Differences were considered statistically significant when p < 0.05. All data are presented as geometric mean ± SD.

[1] = Abcb1a/1b;Abcg2-/- (>99% FVB genetic background), male Abcb1a/1b;Abcg2-/- mice, elacridar 50 mg/kg oral 2 h prior
[2] = Abcb1a/1b;Abcg2-/- (>99% FVB genetic background), male Abcb1a/1b;Abcg2-/- mice, vehicle
[3] = wild-type (>99% FVB genetic background), male wild-type mice, elacridar 50 mg/kg oral 2 h prior
[4] = wild-type (>99% FVB genetic background), male wild-type mice, vehicle

Compound: COc1ccc(CN2C3CC2CN(c2ccc(-c4cc(OCC(C)(C)O)cn5ncc(C#N)c45)cn2)C3)cn1 [selpercatinib]
- concentration at 2 h (Abcb1a/1b;Abcg2-/- (>99% FVB genetic background), brain, male Abcb1a/1b;Abcg2-/- mice, elacridar 50 mg/kg oral 2 h prior, read-out: Cbrain): 4710 ± 484 ng/g
- concentration at 2 h (Abcb1a/1b;Abcg2-/- (>99% FVB genetic background), brain, male Abcb1a/1b;Abcg2-/- mice, vehicle, read-out: Cbrain): 4730 ± 638 ng/g
- concentration at 2 h (FVB (Abcb1a/1b;Abcg2-/-), liver, with elacridar 50 mg/kg oral, 2 h before selpercatinib, male Abcb1a/1b;Abcg2-/- mice, elacridar 50 mg/kg oral 2 h prior, read-out: CLiver): 23600 ng/g
- concentration at 2 h (FVB (Abcb1a/1b;Abcg2-/-), liver, male Abcb1a/1b;Abcg2-/- mice, vehicle, read-out: CLiver): 21400 ng/g
- concentration at 2 h (FVB (wild-type), liver, with elacridar 50 mg/kg oral, 2 h before selpercatinib, male wild-type mice, elacridar 50 mg/kg oral 2 h prior, read-out: CLiver): 20000 ng/g
- concentration at 2 h (FVB (wild-type), liver, male wild-type mice, vehicle, read-out: CLiver): 18100 ng/g
- concentration at 2 h (FVB, small intestine tissue together with contents, male Abcb1a/1b;Abcg2-/- mice, elacridar 50 mg/kg oral 2 h prior, read-out: CSI + SIC (small intestine tissue together with contents concentration)): 21200 ng/g
- concentration at 2 h (FVB, small intestine tissue together with contents, male Abcb1a/1b;Abcg2-/- mice, vehicle, read-out: CSI + SIC (small intestine tissue together with contents concentration)): 18800 ng/g
- concentration at 2 h (FVB, small intestine tissue together with contents, male wild-type mice, elacridar 50 mg/kg oral 2 h prior, read-out: CSI + SIC (small intestine tissue together with contents concentration)): 26600 ng/g
- concentration at 2 h (FVB, small intestine tissue together with contents, male wild-type mice, vehicle, read-out: CSI + SIC (small intestine tissue together with contents concentration)): 37600 ng/g
- concentration at 2 h (FVB, testis, male Abcb1a/1b;Abcg2-/- mice, elacridar 50 mg/kg oral 2 h prior, read-out: Ctestis): 9200 ± 856 ng/g
- concentration at 2 h (FVB, testis, male Abcb1a/1b;Abcg2-/- mice, vehicle, read-out: Ctestis): 7020 ± 664 ng/g
- concentration at 2 h (FVB, testis, male wild-type mice, elacridar 50 mg/kg oral 2 h prior, read-out: Ctestis): 5710 ± 1740 ng/g
- concentration at 2 h (FVB, testis, male wild-type mice, vehicle, read-out: Ctestis): 788 ± 159 ng/g
- Cmax [1]: 9620 ± 776 ng/mL
- Tmax [1]: 47.4 ± 19.8 min
- AUC(0-t) [1]: 17300 ng·h/mL
- Cmax [2]: 8860 ± 792 ng/mL
- Tmax [2]: 60 min
- AUC(0-t) [2]: 15100 ng·h/mL
- AUC(0-t) (FVB, wild-type, male wild-type mice, vehicle): 14100 ng·h/mL
- Cmax [3]: 7470 ± 1850 ng/mL
- Tmax [3]: 30 ± 16.2 min
- AUC(0-t) [3]: 12900 ng·h/mL
- Cmax [4]: 8740 ± 1560 ng/mL
- Tmax [4]: 45 ± 16.2 min
- concentration at 2 h (wild-type (>99% FVB genetic background), brain, male wild-type mice, elacridar 50 mg/kg oral 2 h prior, read-out: Cbrain): 2760 ± 851 ng/g
- concentration at 2 h (wild-type (>99% FVB genetic background), brain, male wild-type mice, vehicle, read-out: Cbrain): 210 ± 40 ng/g
- abnormal external behavior (wild-type mice, oral co-administration of elacridar): without any abnormal external behavior
